Data published in the supplement of paper PMC10307832.

Key:
Assay in all cases: relative viability (nuclei count vs DMSO), 5 days (fraction); higher = more cells survive
[1] = compound: Cc1ccc2nc(NCCN)c3ncc(C)n3c2c1 + O=C(CCCCCCC(=O)Nc1ccccc1)NO [Vorinostat] (partner 1 µM)
How it was run: (§1)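 Values are medians from duplicate plates. Each reflects relative viability, defined as the nuclei count of treated wells over that of vehicle wells. Lung cancer cell lines in 1536-well plates were pin-tool dosed one day after seeding with one drug alone or with a fixed anchor-drug dose plus five library-drug doses (not always all listed) in √10 steps, then fixed, stained and imaged at 4× after 5 days.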

Salubrinal + Dasatinib = compound: O=C(/C=C/c1ccccc1)NC(NC(=S)Nc1cccc2cccnc12)C(Cl)(Cl)Cl [Salubrinal] + Cc1nc(Nc2ncc(C(=O)Nc3c(C)cccc3Cl)s2)cc(N2CCN(CCO)CC2)n1 [Dasatinib] (partner 0.075 µM)
How it was run: as §1

Salubrinal + Decitabine = compound: O=C(/C=C/c1ccccc1)NC(NC(=S)Nc1cccc2cccnc12)C(Cl)(Cl)Cl [Salubrinal] + Nc1ncn([C@H]2C[C@H](O)[C@@H](CO)O2)c(=O)n1 [Decitabine] (partner 2 µM)
How it was run: as §1

Salubrinal + Vorinostat = compound: O=C(/C=C/c1ccccc1)NC(NC(=S)Nc1cccc2cccnc12)C(Cl)(Cl)Cl [Salubrinal] + O=C(CCCCCCC(=O)Nc1ccccc1)NO [Vorinostat] (partner 1 µM)
How it was run: as §1

Cell Line | relative viability ([1]; first compound 0.04 µM) | relative viability ([1]; first compound 0.1265 µM) | relative viability ([1]; first compound 0.4 µM) | relative viability ([1]; first compound 1.265 µM) | relative viability ([1]; first compound 4 µM) | relative viability (Salubrinal + Dasatinib; first compound 0.08 µM) | relative viability (Salubrinal + Dasatinib; first compound 0.253 µM) | relative viability (Salubrinal + Dasatinib; first compound 0.8 µM) | relative viability (Salubrinal + Dasatinib; first compound 2.53 µM) | relative viability (Salubrinal + Dasatinib; first compound 8 µM) | relative viability (Salubrinal + Decitabine; first compound 0.08 µM) | relative viability (Salubrinal + Decitabine; first compound 0.253 µM) | relative viability (Salubrinal + Decitabine; first compound 0.8 µM) | relative viability (Salubrinal + Decitabine; first compound 2.53 µM) | relative viability (Salubrinal + Decitabine; first compound 8 µM) | relative viability (Salubrinal + Vorinostat; first compound 0.08 µM) | relative viability (Salubrinal + Vorinostat; first compound 0.253 µM) | relative viability (Salubrinal + Vorinostat; first compound 0.8 µM) | relative viability (Salubrinal + Vorinostat; first compound 2.53 µM) | relative viability (Salubrinal + Vorinostat; first compound 8 µM)
NCI-H460 | 0.74 | 0.7 | 0.708 | 0.683 | 0.631 | 0.641 | 0.56 | 0.644 | 0.565 | 0.422 | 0.517 | 0.461 | 0.475 | 0.379 | 0.444 | 1.18 | 0.74 | 0.976 | 0.713 | 0.511
NCI-H520 | 0.719 | 0.725 | 0.808 | 0.674 | 0.574 | 0.252 | 0.236 | 0.292 | 0.231 | 0.292 | 0.551 | 0.579 | 0.575 | 0.501 | 0.576 | 0.755 | 0.675 | 0.787 | 0.638 | 0.67
NCI-H522 | 0.825 | 0.971 | 0.677 | 0.92 | 1.09 | 0.988 | 0.976 | 0.981 | 0.869 | 0.972 | 0.711 | 1.19 | 0.617 | 0.705 | 0.729 | 1.03 | 0.944 | 0.972 | 0.889 | 0.844
NCI-H596 | 0.674 | 0.714 | 0.609 | 0.668 | 0.588 | 0.633 | 0.509 | 0.569 | 0.633 | 0.56 | 1.1 | 1.02 | 1.18 | 0.969 | 0.863 | 0.607 | 0.356 | 0.796 | 0.825 | 0.715
NCI-H647 | 0.691 | 0.384 | 0.571 | 0.492 | 0.328 | 0.168 | 0.203 | 0.235 | 0.243 | 0.137 | 0.389 | 0.452 | 0.451 | 0.443 | 0.552 | 0.546 | 0.547 | 0.773 | 0.504 | 0.683
NCI-H650 | 0.584 | 0.461 | 0.351 | 0.534 | 0.409 | 0.425 | 0.462 | 0.462 | 0.474 | 0.413 | 0.288 | 0.297 | 0.352 | 0.298 | 0.323 | 0.477 | 0.494 | 0.382 | 0.48 | 0.404
NCI-H661 | 0.752 | 0.778 | 0.748 | 0.785 | 0.834 | 0.995 | 0.921 | 0.928 | 0.871 | 0.86 | 0.602 | 0.474 | 0.57 | 0.474 | 0.536 | 0.839 | 0.739 | 0.852 | 0.806 | 0.793
NCI-H727 | 1.3 | – | 1.13 | 1.18 | 1.04 | 0.311 | 0.38 | 0.341 | 0.409 | 0.375 | 0.802 | 0.876 | 0.847 | 0.837 | 0.825 | 1.39 | 0.948 | 1.06 | 1.1 | 1.24
NCI-H838 | 0.8 | 0.685 | 0.685 | 0.708 | 0.61 | 0.304 | 0.288 | 0.318 | 0.262 | 0.266 | 0.493 | 0.471 | 0.462 | 0.417 | 0.464 | 0.764 | 0.736 | 0.728 | 0.697 | 0.751
NCI-H1355 | 0.721 | 0.599 | 0.633 | 0.634 | 0.671 | 0.764 | 0.569 | 0.806 | 0.685 | 0.603 | 0.352 | 0.394 | 0.359 | 0.36 | 0.35 | 0.684 | 0.636 | 0.715 | 0.657 | 0.645
NCI-H1395 | 0.891 | 0.765 | 0.662 | 0.651 | 0.56 | 0.409 | 0.443 | 0.472 | 0.4 | 0.392 | 0.792 | 0.686 | 0.707 | 0.67 | 0.692 | 0.617 | 0.768 | 1.09 | 0.901 | 0.558
NCI-H1437 | 0.752 | 0.813 | 0.771 | 0.667 | 0.653 | 0.406 | 0.42 | 0.487 | 0.507 | 0.243 | 0.549 | 0.502 | 0.523 | 0.564 | 0.612 | 0.841 | 0.787 | 0.812 | 0.814 | 0.714
NCI-H1650 | 0.709 | 0.466 | 0.509 | 0.469 | 0.478 | 0.366 | 0.35 | 0.321 | 0.357 | 0.294 | 0.522 | 0.453 | 0.417 | 0.476 | 0.455 | 0.76 | 0.592 | 0.672 | 0.456 | 0.648
NCI-H1651 | 0.639 | 0.558 | 0.564 | 0.539 | 0.483 | 0.487 | 0.259 | 0.452 | 0.393 | 0.35 | 0.654 | 0.542 | 0.681 | 0.634 | 0.661 | 0.597 | 0.478 | 0.669 | 0.527 | 0.546
NCI-H1666 | 1.06 | 1.05 | 0.925 | 0.944 | 1.05 | 0.845 | 0.721 | 0.799 | 0.806 | 0.613 | 0.741 | 0.726 | 0.788 | 0.712 | 0.895 | 0.99 | 0.886 | 0.99 | 1.16 | 1.11
NCI-H1734 | 0.816 | 0.824 | 0.637 | 0.733 | 0.77 | 0.485 | 0.462 | 0.574 | 0.465 | 0.422 | 0.573 | 0.51 | 0.527 | 0.474 | 0.477 | 0.834 | 0.801 | 0.916 | 0.77 | 0.745
